Source: publication PMC12028738 (Marine Drugs, 2025)
Where no end group is shown, it is not given here.

B1: C5 (peptide)
peptide: LDVVIHTVTYGDR
notes: from the Ciona intestinalis trypsin hydrolysate; written as one molecule; The parent protein is not known; also called peptide C5; source: trypsin hydrolysate of Ciona intestinalis (AUF); synthetic peptide, GuoPing Pharmaceutical (HTRF, SPR)
B2: S2 (peptide)
peptide: VLRDNIQGITKPAIR
notes: from the Styela clava trypsin hydrolysate; candidate protein: Histone H4 (Transparent ascidian); the text says that it exactly matches Histone H4 of Ciona savignyi; written as one molecule; also called peptide S2; source: trypsin hydrolysate of Styela clava (AUF); synthetic peptide, GuoPing Pharmaceutical (HTRF, SPR)

Experiments:
PD-1/PD-L1 binding = conditions: read-out: PD-1/PD-L1 inhibitory IC50; cited from earlier work
Description: (§1) With continuous progress of modern separation and analysis techniques, high-throughput screening methods for enzyme inhibitory peptides have emerged as powerful tools in the discovery of bioactive peptides. Recently, the methodologies based on the phage display library, bacteria display library, and peptide fragment of proteins have been applied in screening for PD-L1 inhibitors.

CT26 tumor = conditions: 2 mg/kg, CT26 tumor-bearing mice; cited from earlier work
Description: as §1

Water-solubility = format: physicochemical; conditions: qualitative statement
[1] = target: T1, recombinant human PD-L1 (residue 18–239, extracellular domain) (human, UniProt Q9NZQ7 18-239); experiment: SPR; Biacore T200, 25 °C; PD-L1 amine-coupled on a CM5 chip to about 5600 RU; peptides injected in PBS-P (1% DMSO) at 30 µL/min, 60 s contact, 60 s dissociation; conditions: both partners purified
T1 construct: Programmed death ligand 1 (PD-L1, B7-H1, CD274), human, residues 18-239, extracellular domain; The limits 18-239 are told for the SPR experiment; No tag is stated; also called programmed death ligand 1; source: bought: Abcam (recombinant, 25 kDa)

Tag1-PD-L1 protein = Tag1-PD-L1 protein (UniProt Q9NZQ7 19-238); experiment: AlphaScreen or HTRF; Cisbio PD-1/PD-L1 HTRF binding assay kit; competition: analyte with Tag1-PD-L1 and Tag2-PD-1 for 15 min at room temperature, then anti-Tag1-Eu3+ and anti-Tag2-XL665 for 2 h at room temperature; conditions: both partners purified

Row | Molecule | Kd [1] | IC50 (Tag1-PD-L1 protein) | other results
1 | CKWYRPSEC [cyclic peptide C8, not the ascidian peptide C8] | – | – | IC50 (PD-1/PD-L1 binding): < 10 µM
2 | NYSKPTDRQYHF [^DPPA-1] | – | – | prolongation of survival time (CT26 tumor): ~50%; tumor growth (CT26 tumor): inhibited the tumor growth
3 | LDVVIHTVTYGDR [C5] | – | – | water-solubility (Water-solubility): poor
4 | B1 | 22.9 µM | 33.9 µM | –
5 | B2 | 29.1 µM | 113 µM | –
